What was measured:
[1] = target: 5-hydroxytryptamine receptor 2A (Homo sapiens, UniProt P28223)
[2] = target: Delta-type opioid receptor (Homo sapiens, UniProt P41143)
[3] = target: 5-hydroxytryptamine receptor 6 (Homo sapiens, UniProt P50406)
[4] = target: Kappa-type opioid receptor (Homo sapiens, UniProt P41145)
Mu-type opioid receptor = Mu-type opioid receptor (Homo sapiens, UniProt P35372)
Histamine H4 receptor = Histamine H4 receptor (Homo sapiens, UniProt Q9H3N8)
Histamine H1 receptor = Histamine H1 receptor (Homo sapiens, UniProt P35367)
Histamine H2 receptor = Histamine H2 receptor (Homo sapiens, UniProt P25021)
[5] = target: 5-hydroxytryptamine receptor 1E (Homo sapiens, UniProt P28566)
[6] = target: Beta-1 adrenergic receptor (Rattus norvegicus, UniProt P18090)
D(2) dopamine receptor = D(2) dopamine receptor (Homo sapiens, UniProt P14416)
D(3) dopamine receptor = D(3) dopamine receptor (Rattus norvegicus, UniProt P19020)
D(1A) dopamine receptor = D(1A) dopamine receptor (Homo sapiens, UniProt P21728)
[7] = target: 5-hydroxytryptamine receptor 5A (Homo sapiens, UniProt P47898)
[8] = target: 5-hydroxytryptamine receptor 2C (Rattus norvegicus, UniProt P08909)
D(1B) dopamine receptor = D(1B) dopamine receptor (Homo sapiens, UniProt P21918)
[9] = target: Alpha-2B adrenergic receptor (Homo sapiens, UniProt P18089)
[10] = target: Alpha-2C adrenergic receptor (Homo sapiens, UniProt P18825)
[11] = target: Muscarinic acetylcholine receptor M2 (Homo sapiens, UniProt P08172)
[12] = target: Gamma-aminobutyric acid receptor subunit alpha-1 (Rattus norvegicus, UniProt P62813)
Histamine H3 receptor = Histamine H3 receptor (Cavia porcellus, UniProt Q9JI35)
[13] = target: Muscarinic acetylcholine receptor M5 (Homo sapiens, UniProt P08912)
[14] = target: Beta-2 adrenergic receptor (Rattus norvegicus, UniProt P10608)
[15] = target: Alpha-2A adrenergic receptor (Homo sapiens, UniProt P08913)

Sequence of Beta-2 adrenergic receptor (P10608 whole entry): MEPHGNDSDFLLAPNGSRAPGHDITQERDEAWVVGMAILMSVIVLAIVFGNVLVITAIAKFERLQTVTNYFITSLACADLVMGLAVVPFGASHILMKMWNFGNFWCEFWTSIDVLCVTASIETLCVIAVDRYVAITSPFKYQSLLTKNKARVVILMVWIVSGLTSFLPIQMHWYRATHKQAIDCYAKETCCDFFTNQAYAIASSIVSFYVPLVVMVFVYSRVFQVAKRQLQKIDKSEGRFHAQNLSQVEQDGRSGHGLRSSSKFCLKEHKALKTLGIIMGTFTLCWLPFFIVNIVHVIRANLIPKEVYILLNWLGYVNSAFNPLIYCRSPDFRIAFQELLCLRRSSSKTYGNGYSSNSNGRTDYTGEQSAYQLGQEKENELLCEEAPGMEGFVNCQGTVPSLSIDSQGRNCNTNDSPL
Sequence of D(3) dopamine receptor (P19020 whole entry): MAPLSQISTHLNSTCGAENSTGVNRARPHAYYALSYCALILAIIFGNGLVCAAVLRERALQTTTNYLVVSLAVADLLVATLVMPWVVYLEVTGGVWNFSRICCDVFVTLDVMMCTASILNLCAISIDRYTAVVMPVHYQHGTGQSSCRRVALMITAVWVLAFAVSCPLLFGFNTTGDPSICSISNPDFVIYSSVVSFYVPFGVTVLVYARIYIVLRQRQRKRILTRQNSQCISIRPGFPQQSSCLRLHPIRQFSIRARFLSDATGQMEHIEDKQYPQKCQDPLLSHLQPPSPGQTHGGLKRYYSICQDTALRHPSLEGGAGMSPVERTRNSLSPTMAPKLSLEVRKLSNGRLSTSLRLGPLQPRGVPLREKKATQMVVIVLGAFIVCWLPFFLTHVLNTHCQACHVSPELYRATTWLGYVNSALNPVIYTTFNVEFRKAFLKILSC
Sequence of 5-hydroxytryptamine receptor 1E (P28566 whole entry): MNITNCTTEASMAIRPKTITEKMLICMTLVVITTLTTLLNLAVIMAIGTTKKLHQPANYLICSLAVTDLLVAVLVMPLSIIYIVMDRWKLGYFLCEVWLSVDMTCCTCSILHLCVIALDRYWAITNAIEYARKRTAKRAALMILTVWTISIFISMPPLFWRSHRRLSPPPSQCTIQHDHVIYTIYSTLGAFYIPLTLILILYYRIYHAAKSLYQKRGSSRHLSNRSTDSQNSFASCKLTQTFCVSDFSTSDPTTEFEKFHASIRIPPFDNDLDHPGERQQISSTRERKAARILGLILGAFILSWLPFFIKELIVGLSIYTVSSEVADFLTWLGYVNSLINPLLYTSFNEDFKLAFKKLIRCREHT
Sequence of D(1B) dopamine receptor (P21918 whole entry): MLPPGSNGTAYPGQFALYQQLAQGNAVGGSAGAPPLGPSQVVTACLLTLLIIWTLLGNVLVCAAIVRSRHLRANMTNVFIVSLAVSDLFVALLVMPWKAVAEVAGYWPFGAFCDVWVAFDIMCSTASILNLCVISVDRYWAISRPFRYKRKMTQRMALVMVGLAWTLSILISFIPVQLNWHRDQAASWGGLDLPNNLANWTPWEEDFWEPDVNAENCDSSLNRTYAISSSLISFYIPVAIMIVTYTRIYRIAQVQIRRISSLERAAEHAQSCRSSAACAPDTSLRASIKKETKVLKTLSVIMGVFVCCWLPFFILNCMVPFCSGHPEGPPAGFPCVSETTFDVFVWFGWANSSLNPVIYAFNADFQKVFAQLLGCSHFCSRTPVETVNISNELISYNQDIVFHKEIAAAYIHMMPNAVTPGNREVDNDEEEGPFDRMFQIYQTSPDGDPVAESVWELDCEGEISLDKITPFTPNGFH
Sequence of 5-hydroxytryptamine receptor 2C (P08909 whole entry): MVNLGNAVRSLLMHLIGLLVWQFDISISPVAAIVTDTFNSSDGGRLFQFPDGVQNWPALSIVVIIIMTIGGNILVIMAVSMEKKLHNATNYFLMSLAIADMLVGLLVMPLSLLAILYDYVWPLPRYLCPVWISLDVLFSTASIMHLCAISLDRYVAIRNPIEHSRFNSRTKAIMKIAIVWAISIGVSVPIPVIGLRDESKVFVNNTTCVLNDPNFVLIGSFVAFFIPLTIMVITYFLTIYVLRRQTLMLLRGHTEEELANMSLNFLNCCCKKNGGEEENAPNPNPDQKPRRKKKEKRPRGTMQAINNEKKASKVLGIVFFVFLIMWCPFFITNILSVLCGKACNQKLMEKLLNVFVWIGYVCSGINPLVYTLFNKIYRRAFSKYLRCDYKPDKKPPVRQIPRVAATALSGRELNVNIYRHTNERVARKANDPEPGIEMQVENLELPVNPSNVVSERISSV
Sequence of Muscarinic acetylcholine receptor M5 (P08912 whole entry): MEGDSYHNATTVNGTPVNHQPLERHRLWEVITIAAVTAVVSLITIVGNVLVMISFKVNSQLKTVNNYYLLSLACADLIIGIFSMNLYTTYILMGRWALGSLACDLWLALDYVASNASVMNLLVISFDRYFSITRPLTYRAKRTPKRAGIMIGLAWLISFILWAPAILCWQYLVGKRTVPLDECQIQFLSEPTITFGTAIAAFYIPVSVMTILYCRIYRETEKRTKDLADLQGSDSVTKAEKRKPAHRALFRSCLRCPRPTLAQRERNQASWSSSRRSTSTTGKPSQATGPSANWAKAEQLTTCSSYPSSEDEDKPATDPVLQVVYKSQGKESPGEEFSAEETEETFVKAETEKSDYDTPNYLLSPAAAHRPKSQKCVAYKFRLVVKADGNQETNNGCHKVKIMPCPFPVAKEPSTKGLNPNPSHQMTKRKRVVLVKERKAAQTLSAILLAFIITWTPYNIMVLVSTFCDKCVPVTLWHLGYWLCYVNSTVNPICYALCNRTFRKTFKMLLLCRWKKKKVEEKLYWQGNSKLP
Sequence of D(1A) dopamine receptor (P21728 whole entry): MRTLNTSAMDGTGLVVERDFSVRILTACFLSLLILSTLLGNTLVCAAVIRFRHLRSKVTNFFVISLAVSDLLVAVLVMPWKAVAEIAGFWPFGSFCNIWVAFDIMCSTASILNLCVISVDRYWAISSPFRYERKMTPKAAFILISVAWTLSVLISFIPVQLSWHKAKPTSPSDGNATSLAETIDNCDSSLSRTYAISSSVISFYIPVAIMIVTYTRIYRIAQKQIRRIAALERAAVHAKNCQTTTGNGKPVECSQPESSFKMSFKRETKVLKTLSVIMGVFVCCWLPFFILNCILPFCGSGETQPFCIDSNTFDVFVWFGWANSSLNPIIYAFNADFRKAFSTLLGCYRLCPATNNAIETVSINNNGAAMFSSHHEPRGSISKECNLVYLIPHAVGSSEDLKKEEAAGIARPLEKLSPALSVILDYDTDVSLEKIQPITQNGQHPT
Sequence of Muscarinic acetylcholine receptor M2 (P08172 whole entry): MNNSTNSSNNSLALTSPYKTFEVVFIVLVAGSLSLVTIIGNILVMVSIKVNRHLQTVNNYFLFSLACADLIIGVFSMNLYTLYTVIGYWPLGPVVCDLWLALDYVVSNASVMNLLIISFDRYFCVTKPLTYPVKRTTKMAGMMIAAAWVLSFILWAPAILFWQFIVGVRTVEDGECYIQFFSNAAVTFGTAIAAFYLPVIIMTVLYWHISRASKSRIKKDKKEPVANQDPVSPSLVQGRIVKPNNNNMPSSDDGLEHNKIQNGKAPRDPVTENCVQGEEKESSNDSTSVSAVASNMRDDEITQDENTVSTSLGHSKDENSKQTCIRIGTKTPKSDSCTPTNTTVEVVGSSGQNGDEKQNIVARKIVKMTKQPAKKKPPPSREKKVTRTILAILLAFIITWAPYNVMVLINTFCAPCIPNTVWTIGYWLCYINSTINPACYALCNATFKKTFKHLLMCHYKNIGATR
Sequence of Mu-type opioid receptor (P35372 whole entry): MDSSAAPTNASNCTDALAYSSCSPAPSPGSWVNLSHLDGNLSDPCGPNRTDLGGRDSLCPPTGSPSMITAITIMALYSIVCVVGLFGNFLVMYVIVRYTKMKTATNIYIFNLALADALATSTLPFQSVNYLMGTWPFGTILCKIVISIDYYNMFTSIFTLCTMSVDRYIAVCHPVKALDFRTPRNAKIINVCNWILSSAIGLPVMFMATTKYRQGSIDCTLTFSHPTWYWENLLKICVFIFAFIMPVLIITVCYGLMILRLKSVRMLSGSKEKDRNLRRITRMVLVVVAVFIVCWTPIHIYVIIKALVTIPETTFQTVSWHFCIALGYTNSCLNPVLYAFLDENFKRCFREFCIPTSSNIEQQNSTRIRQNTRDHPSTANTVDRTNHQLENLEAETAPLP
Sequence of Beta-1 adrenergic receptor (P18090 whole entry): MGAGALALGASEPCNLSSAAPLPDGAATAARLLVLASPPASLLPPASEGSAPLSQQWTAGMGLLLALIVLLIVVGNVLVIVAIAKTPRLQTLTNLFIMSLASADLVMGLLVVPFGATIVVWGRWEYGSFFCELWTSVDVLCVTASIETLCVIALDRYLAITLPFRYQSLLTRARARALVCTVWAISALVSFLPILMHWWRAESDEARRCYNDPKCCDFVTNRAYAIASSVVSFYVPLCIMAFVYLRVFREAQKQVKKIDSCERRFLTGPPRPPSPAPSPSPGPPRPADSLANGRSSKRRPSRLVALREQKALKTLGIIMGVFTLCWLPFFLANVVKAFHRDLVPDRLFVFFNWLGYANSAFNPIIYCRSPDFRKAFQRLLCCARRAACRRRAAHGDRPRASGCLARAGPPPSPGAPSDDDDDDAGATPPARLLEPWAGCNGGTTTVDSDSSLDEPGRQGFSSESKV
Sequence of Gamma-aminobutyric acid receptor subunit alpha-1 (P62813 whole entry): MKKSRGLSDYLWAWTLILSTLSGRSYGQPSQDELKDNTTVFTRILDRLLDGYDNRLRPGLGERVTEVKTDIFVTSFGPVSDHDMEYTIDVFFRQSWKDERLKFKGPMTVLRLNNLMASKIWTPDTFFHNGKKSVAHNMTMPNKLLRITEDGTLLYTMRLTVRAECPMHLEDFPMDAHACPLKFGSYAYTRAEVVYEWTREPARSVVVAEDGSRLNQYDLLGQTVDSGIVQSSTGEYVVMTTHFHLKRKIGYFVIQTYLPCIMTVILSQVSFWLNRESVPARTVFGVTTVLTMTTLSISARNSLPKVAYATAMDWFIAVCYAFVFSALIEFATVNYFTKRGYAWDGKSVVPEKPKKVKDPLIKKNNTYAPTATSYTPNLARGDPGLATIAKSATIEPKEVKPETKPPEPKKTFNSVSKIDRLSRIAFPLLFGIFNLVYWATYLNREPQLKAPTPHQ

- Ki [1]: 6.26 µM
- Ki [2]: > 10 µM
- Ki [3]: > 10 µM
- Ki [4]: 0.412 µM
- Ki (Mu-type opioid receptor): > 10 µM
- Ki (Histamine H4 receptor): > 10 µM
- Ki (Histamine H1 receptor): > 10 µM
- Ki (Histamine H2 receptor): > 10 µM
- Ki [5]: > 10 µM
- Ki [6]: > 10 µM
- Ki (D(2) dopamine receptor): 0.94 µM
- Ki (D(3) dopamine receptor): 0.37 µM
- Ki (D(1A) dopamine receptor): > 10 µM
- Ki [7]: > 10 µM
- Ki [8]: > 10 µM
- Ki (D(1B) dopamine receptor): > 10 µM
- Ki [9]: > 10 µM
- Ki [10]: 2.57 µM
- Ki [11]: > 10 µM
- Ki [12]: > 10 µM
- Ki (Histamine H3 receptor): > 10 µM
- Ki [13]: > 10 µM
- Ki [14]: > 10 µM
- Ki [15]: > 10 µM
Compound: COc1ccccc1N1CCN(CCN(C(=O)C2CCCCC2)c2ccccn2)CC1
